We go through three molecules from patent publication US20070243270A1, “METHODS AND KITS FOR REDUCING CELLULAR DAMAGE, INHIBITING FREE RADICAL PRODUCTION, AND SCAVENGING FREE RADICALS IN MAMMALS” (priority 2003, published 2007).

Molecules are shown by their SMILES. Converted amounts (≈) assume the structure as drawn. Read-outs that look alike come from different tables or passages of the source.

Series [1] deals with DMBA-induced epidermal hyperplasia. The series can be described thus: Inhibition of DMBA-induced epidermal hyperplasia in mouse skin. Type of series: in vivo, female SENCAR mice. Here is the method: One of the best studied in vivo models for evaluation of environmental stress response effects on DNA and cell damage is the mouse skin system in which the skin is treated with a chemical compound known to damage DNA and cell structure and function. […] Exp. Med. Biol. 1995, 369, 167). […] Following dosing and treatment, skin DNA and cell structure and function were evaluated using three endpoints, epidermal hyperplasia, 8-OH-dG formation, and Ha-ras mutation. Each method is described briefly below. Seven week old, pathogen free, female SENCAR mice were purchased from the National Cancer Institute (NCI, Frederick, Md.). Mice were randomized by weight and separated into groups (n=5 mice per group). Experimental groups of mice were treated on shaved dorsal skin with antioxidants, 15 min prior to treatment with DMBA (25 μg per treatment). In topical experiments, different doses, i.e., 0.5, 1.0, 2.0, and/or 4.0 mg, of test or reference antioxidants per mouse were applied topically twice weekly for a total of 8 treatments (4 weeks). […] Negative control groups were treated with vehicle (acetone) only. […] Most antioxidants were administered in acetone. Antioxidants that were not soluble in acetone to the desired concentration, were dissolved in the necessary volume: mixture of acetone and water or ethanol. All topical treatments were administered in a final volume of 0.2 mL. […] The same control groups were maintained. Both positive and negative control groups were fed a standard AIN-93G diet (i.e., not supplemented with antioxidants). […] At sacrifice the shaved dorsal skin section was removed. […] Epidermal thickness was determined in each animal from at least 20 randomly selected sites per animal using formalin-fixed, paraffin-embedded 5 μm sections stained with hematoxylin and eosin. The remaining skin was frozen in liquid nitrogen. All frozen sections were stored at −70 C until analysis for isolation of DNA.

Another series relates to 3PC cells. The series can be described thus: ATP-bioluminescence assay, reactive oxygen species-stimulated growth of cells. It is filed as cell-based.
Another series deals with codon 61 of c-Ha-ras. The series can be described thus: DMBA-induced Ha-ras codon 61 mutation in mouse skin DNA. It is filed as in vivo, female SENCAR mice. Conditions: acetone neg. control 3.05. The method, then: One of the best studied in vivo models for evaluation of environmental stress response effects on DNA and cell damage is the mouse skin system in which the skin is treated with a chemical compound known to damage DNA and cell structure and function. […] Exp. Med. Biol. 1995, 369, 167). […] Following dosing and treatment, skin DNA and cell structure and function were evaluated using three endpoints, epidermal hyperplasia, 8-OH-dG formation, and Ha-ras mutation. Each method is described briefly below. Seven week old, pathogen free, female SENCAR mice were purchased from the National Cancer Institute (NCI, Frederick, Md.). Mice were randomized by weight and separated into groups (n=5 mice per group). Experimental groups of mice were treated on shaved dorsal skin with antioxidants, 15 min prior to treatment with DMBA (25 μg per treatment). […] Epidermal thickness was determined in each animal from at least 20 randomly selected sites per animal using formalin-fixed, paraffin-embedded 5 μm sections stained with hematoxylin and eosin. […] DNA isolated from freshly-frozen tissues of 5 mice per group was analyzed for […] of c-Ha-ras by PCR analysis. […] The ratio of the amount of wild type DNA to mutated DNA was determined by quantifying intensity of 32P labeling on autoradiograms. […]

Setting [2] is: 3PC cells, read-out: Estimated IC50 (mg/L) in ATP Bioluminescence Assay.

As to `O=C1O[C@H]([C@@H](O)CO)C(O)=C1O` [Ascorbic Acid, L-ascorbic acid], the “Inhibition of DMBA-Induced Epidermal Hyperplasia” value in series [1] (dietary 1.0%) is 83%; in series [1] (dietary 5.0%) it was 86%; in series [1] (topical application 0.5 mg), 66%; in series [1] (topical application 2.0 mg), 66%. Besides, the IC50 in the series on 3PC cells (setting [2]) is 4.6 mg/L (≈ 26.1 µM); in the series on 3PC cells (ATP bioluminescence, calculated on ascorbic acid content, read-out: Estimated IC50 Based on vitamin C content), 4.6 mg/L (≈ 26.1 µM); in the series with 3PC cells (ATP bioluminescence, read-out: Estimated IC50 based on weight), 4.6 mg/L (≈ 26.1 µM). In addition, the “Ha-ras Formation” value in the series on codon 61 of c-Ha-ras (topical 4 mg + DMBA) came out at 6.19.

With `Cc1c2ccccc2c(C)c2c1ccc1ccccc12` [DMBA, dimethylbenzanthracene], in the series with codon 61 of c-Ha-ras (DMBA only (pos. control)), the “Ha-ras Formation” value is 18.39.

Turning to `CC1=C[C@H](O)CC(C)(C)[C@H]1/C=C/C(C)=C/C=C/C(C)=C/C=C/C=C(C)/C=C/C=C(C)/C=C/C1=C(C)C[C@@H](O)CC1(C)C` [Lutein, lutein], the IC50 in the series on 3PC cells (setting [2]) is 70.8 mg/L (≈ 124 µM).
